Measured values taken from ChEMBL document CHEMBL1201862, “PubChem BioAssay data set” (2004).
Activity calls are given as the source filed them.

Columns and labels:
NADPH oxidase 1 [1] = molecular target: T1, NADPH oxidase 1 (Homo sapiens, UniProt Q9Y5S8); type: functional, cell-based
T1 sequence (Q9Y5S8 whole entry): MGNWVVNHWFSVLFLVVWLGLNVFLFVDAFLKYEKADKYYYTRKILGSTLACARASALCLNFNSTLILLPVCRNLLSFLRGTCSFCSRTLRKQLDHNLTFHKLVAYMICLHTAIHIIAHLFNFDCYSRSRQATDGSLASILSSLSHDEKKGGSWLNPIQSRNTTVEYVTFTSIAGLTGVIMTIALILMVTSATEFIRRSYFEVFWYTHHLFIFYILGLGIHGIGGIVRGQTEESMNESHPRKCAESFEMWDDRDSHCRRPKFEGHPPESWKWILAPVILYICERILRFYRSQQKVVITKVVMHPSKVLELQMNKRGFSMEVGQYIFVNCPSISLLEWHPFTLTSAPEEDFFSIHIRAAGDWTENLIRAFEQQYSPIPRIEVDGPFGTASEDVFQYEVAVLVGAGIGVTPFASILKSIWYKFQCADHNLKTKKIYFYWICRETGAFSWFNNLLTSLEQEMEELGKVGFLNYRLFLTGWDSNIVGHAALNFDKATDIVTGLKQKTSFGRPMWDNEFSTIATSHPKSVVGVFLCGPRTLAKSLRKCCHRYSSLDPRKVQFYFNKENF

NADPH oxidase 1 [2] = molecular target: T1, NADPH oxidase 1; test: Luminescence-based cell-based dose response assay to identify inhibitors of NADPH oxidase 1 (NOX1).; type: functional
[3] = molecular target: Induced myeloid leukemia cell differentiation protein Mcl-1 (Homo sapiens, UniProt Q07820); type: functional
[4] = molecular target: T2, Neuropeptide Y receptor type 1 (Homo sapiens, UniProt P25929); test: Fluorescence-based counterscreen for potentiators or agonists of NPY-Y2: cell-based high-throughput dose response assay for potentiators or agonists of NPY-Y1.; type: functional
T2 sequence (P25929 whole entry): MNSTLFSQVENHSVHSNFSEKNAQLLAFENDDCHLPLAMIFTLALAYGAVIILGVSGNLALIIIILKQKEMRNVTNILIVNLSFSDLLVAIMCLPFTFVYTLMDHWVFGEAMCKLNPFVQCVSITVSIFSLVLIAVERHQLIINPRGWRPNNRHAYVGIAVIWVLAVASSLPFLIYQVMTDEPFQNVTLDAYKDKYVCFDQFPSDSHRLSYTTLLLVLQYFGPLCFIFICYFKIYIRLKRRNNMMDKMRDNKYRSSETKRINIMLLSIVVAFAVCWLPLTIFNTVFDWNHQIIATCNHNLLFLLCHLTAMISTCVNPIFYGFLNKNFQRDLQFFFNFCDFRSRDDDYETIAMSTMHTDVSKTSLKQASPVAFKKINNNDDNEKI

HEK293 = test: Fluorescence-based counterscreen for potentiators or agonists of NPY-Y2: cell-based high-throughput dose response assay to identify inhibitors of cyclic nucleotide gated ion channel (CNGC) activity. In this assay, the parental HEK293 cell line transfected with a cyclic-nucleotide gated ion channel (CNGC)-based cAMP sensor is used to measure inhibition of isoproterenol-induced CNGC activity by test compound.; type: functional; details: Homo sapiens
[5] = test system: Streptococcus sp. 'group A'; test: growth inhibition of control SK(-) GAS strain, dose response, counter-screen for streptokinase expression inhibitor project, luminescence, kanamycin, BacTiterGlo, confirmation (AID 1900); type: functional, organism-based
[6] = molecular target: T3, Neuropeptide Y receptor type 2 (Homo sapiens, UniProt P49146); test: Fluorescence-based cell-based high-throughput dose response assay for agonists of NPY-Y2. [Related pubchem assays: 1703 (Screening assay (CNGC inhibitors).), 1359 (Screening assay (NPY-Y2 potentiators or agonists).), 1304 (Screening assay (NPY-Y1 potentiators or agonists).), 1710 (Screening assay (NPY-Y2 agonists).), 1791 (Summary AID.)]; type: functional
T3 sequence (P49146 whole entry): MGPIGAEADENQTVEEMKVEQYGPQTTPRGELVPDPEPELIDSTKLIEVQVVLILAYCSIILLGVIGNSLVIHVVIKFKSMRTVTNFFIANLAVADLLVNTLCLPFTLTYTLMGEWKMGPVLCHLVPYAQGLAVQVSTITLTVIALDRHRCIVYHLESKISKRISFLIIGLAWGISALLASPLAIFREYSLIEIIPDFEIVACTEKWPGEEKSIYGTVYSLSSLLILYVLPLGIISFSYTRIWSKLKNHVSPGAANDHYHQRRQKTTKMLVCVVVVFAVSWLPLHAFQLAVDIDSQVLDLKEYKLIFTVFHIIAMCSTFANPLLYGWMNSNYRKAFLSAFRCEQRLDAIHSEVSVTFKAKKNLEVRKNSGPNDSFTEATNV

Streptokinase A = molecular target: T4, Streptokinase A (Streptococcus pyogenes serotype M1, UniProt P10520); test: S. pyogenes streptokinase expression inhibitors, potency, dose response, plasminogen activation absorbance, OD405 (AID 1914); type: functional, Streptococcus pyogenes M1 GAS;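 further: secreted streptokinase activity via plasminogen activation per viability signal from cell pellet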
T4 sequence (P10520 whole entry): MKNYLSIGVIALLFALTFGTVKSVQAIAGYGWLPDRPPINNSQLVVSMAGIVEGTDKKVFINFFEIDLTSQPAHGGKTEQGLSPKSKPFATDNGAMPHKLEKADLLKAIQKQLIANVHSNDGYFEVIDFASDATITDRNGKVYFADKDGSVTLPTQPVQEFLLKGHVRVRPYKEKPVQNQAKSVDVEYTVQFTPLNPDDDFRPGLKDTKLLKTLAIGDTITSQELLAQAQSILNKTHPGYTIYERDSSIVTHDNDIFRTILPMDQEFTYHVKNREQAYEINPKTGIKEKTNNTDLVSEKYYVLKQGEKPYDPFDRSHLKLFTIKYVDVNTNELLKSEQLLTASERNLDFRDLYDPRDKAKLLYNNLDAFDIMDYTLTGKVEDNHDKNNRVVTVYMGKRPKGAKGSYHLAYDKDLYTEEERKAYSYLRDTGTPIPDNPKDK

[7] = molecular target: G-protein coupled receptor 55 (Homo sapiens, UniProt Q9Y2T6); test: GPR55 antagonists blocking LPI-driven arrestin recruitment, primary screen, imaging, U2OS, beta-arrestin-GFP, LPI agonist (AID 2013); type: functional;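 further: antagonist potency measured as reduced agonist-driven arrestin aggregation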
[8] = molecular target: T3, Neuropeptide Y receptor type 2; test: Fluorescence-based cell-based high-throughput dose response assay for potentiators or agonists of NPY-Y2. [Related pubchem assays: 1539 (Screening assay (NPY-Y2 potentiators or agonists).), 1703 (Screening assay (CNGC inhibitors).), 1359 (Screening assay (NPY-Y2 potentiators or agonists).), 1304 (Screening assay (NPY-Y1 potentiators or agonists).) …; type: functional
[9] = molecular target: T2, Neuropeptide Y receptor type 1; test: Fluorescence-based counterscreen for agonists of NPY-Y2: cell-based high-throughput dose response assay for agonists of NPY-Y1.; type: functional
Streptococcus = test: Group A Streptococcus viability loss, dose response, counter-screen for streptokinase expression inhibitor project, luminescence, BacTiterGlo (AID 1915); type: functional, organism-based;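 further: potency for reduction of bacterial viability or growth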
[10] = HeLa cell cytotoxicity, dose response, cytotoxicity control for MgcRacGAP inhibitor project (AID 624300); type: functional
[11] = molecular target: T5, Rac GTPase-activating protein 1 (Homo sapiens, UniProt Q9H0H5); test: MgcRacGAP GTPase-activating activity inhibitors, confirmation, biochemical, ADP Hunter fluorescence, primary and confirmatory (AID 624330); type: functional
T5 sequence (Q9H0H5 whole entry): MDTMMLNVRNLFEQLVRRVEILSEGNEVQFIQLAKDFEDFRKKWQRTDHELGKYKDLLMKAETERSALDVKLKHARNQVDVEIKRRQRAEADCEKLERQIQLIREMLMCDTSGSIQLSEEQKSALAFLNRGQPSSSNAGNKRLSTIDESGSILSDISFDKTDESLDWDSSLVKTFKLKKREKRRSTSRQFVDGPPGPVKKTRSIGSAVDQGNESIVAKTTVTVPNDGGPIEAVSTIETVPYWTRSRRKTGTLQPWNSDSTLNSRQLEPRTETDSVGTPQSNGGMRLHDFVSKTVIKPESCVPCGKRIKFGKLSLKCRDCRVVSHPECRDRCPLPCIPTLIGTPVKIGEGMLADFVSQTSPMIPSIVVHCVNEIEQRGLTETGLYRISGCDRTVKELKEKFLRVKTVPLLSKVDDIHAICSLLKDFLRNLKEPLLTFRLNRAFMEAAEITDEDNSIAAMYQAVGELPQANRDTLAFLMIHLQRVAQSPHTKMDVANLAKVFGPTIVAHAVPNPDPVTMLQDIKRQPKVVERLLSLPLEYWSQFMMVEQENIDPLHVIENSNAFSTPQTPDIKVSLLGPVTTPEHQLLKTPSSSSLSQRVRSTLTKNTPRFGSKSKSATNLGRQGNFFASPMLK

Chain of G-protein coupled receptor 55 (Q9Y2T6 whole entry): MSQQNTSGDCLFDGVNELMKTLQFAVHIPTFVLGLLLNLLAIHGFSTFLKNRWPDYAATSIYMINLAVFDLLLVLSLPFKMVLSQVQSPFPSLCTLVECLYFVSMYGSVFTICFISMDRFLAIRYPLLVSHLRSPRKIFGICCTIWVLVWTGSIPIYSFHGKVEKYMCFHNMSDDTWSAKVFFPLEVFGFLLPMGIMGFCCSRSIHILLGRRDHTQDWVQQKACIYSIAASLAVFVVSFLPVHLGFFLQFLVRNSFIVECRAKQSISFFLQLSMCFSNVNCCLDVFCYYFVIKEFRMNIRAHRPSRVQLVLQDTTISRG
Chain of Induced myeloid leukemia cell differentiation protein Mcl-1 (Q07820 whole entry): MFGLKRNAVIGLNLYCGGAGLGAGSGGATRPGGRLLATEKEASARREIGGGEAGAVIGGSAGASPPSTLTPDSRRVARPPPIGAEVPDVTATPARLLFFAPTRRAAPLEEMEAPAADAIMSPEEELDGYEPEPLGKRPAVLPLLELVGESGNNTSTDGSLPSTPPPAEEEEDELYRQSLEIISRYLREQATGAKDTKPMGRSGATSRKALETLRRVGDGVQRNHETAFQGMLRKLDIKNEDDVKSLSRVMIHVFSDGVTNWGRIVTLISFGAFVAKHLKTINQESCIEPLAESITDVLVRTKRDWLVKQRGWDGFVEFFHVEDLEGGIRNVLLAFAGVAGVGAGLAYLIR

## O=C(Nc1ccc(NC(=O)c2ccccc2O)cc1)Nc1ccc(OCc2ccccc2)cc1
NADPH oxidase 1 [1]
  IC50: > 17 µM (not active)

## CCN(CC)c1ccc(NC(=O)Nc2cccc(C(C)=O)c2)cc1
NADPH oxidase 1 [2]
  IC50: 0.083 µM (active)
[3]
  IC50: 3.13 µM (not active)

## CCOC(=O)c1nc(Nc2ccc(Nc3ccccc3)cc2)c2ccccc2n1
[4]
  EC50: 13.2 µM (not active)
HEK293
  EC50: > 11.8 µM (not active)
[5]
  EC50: 10.2 µM (active)
[6]
  EC50: 10.1 µM (not active)
Streptokinase A
  EC50: > 150 µM (not active)
[7]
  IC50: 2.48 µM (active)
[8]
  EC50: 13.2 µM (not active)
[9]
  EC50: 10.9 µM (not active)
Streptococcus
  EC50: 12.8 µM (active)
[10]
  CC50: 44.8 µM (active)
[11]
  IC50: 105 µM (active)
